From article PMC7950324, “A general method for quantifying ligand binding to unmodified receptors using Gaussia luciferase” (The Journal of Biological Chemistry, 2021)
Like-named read-outs stand apart in the source and are kept apart here.

How the values were obtained:
ɑ1AAR [1] = target: T1, ɑ1AAR (Homo sapiens, UniProt P35348); assay: α1AAR ligand screening, plasma membrane–ligand BRET (α1AAR with GLuc–PM); conditions: for inhibition at 10 µM: 20 min
[2] = target: AT1 angiotensin receptor (AT1R), untagged, rat (rat) (UniProt P25095); assay: FRET or BRET; PM‒ligand (bystander) BRET with GLuc‒PM, equilibrium competition: live HEK 293T cells with unmodified receptor, GLuc‒PM and DN-Dyn; a fixed fluorescent ligand (1 μM TAMRA‒AngII, 300 ng/ml biotinylated EGF on Alexa Fluor 488 streptavidin, or 100 μg/ml Alexa Fluor 488 human transferrin) and increasing unlabeled ligand, 2 h at room temperature
[3] = target: AT2 angiotensin receptor (AT2R), untagged, rat (rat) (UniProt P35351); assay: as above
ɑ1AAR [4] = target: T1, ɑ1AAR; assay: PM–ligand BRET equilibrium binding, α1AAR with GLuc–PM; design: expressed in transfected cells; host or cells: HEK 293T
GLuc–ɑ1AAR = target: T2, GLuc–ɑ1AAR (Homo sapiens, UniProt P35348); assay: Receptor–ligand BRET equilibrium binding, GLuc–α1AAR in HEK 293T cells
T2 construct: Gaussia luciferase signal peptide (N); […]; expressed in transfected cells; host or cells: HEK 293T

GLuc–AT1R [5] = target: T3, GLuc–AT1R (Rattus norvegicus, UniProt P25095); assay: Kinetic receptor–ligand BRET, GLuc–AT1R; type: binding
T3 construct: Gaussia luciferase signal peptide (N); expressed in transfected cells; host or cells: HEK 293T
T3 sequence (P25095 1-359): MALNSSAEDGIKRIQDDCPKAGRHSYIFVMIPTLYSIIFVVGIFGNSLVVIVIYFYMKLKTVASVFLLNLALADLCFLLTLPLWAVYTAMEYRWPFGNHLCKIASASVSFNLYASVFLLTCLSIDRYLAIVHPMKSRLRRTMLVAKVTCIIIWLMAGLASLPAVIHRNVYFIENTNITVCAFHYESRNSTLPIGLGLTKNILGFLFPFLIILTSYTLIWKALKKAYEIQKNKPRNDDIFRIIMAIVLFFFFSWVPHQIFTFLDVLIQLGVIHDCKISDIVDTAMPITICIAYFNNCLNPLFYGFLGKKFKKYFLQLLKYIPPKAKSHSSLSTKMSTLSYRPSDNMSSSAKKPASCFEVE

AT1R [6] = target: T4, AT1R (Rattus norvegicus, UniProt P25095); assay: PM–ligand BRET equilibrium binding, untagged AT1R with GLuc–PM; conditions: two site competitive fit
T4 construct: expressed in transfected cells; host or cells: HEK 293T
T4 sequence (P25095 1-359): T3 sequence (P25095 1-359)

AT1R [7] = target: T4, AT1R; assay: PM–ligand BRET equilibrium binding, untagged AT1R with NanoLuc–PM; conditions: 1 μM TAMRA–AngII, two site competitive fit
GLuc–AT1R [8] = target: T3, GLuc–AT1R; assay: Receptor–ligand BRET equilibrium binding, GLuc–AT1R in HEK 293T cells; conditions: 1 μM TAMRA–AngII, two site competitive fit, 2 h room temperature
NanoLuc–AT1R = target: T5, NanoLuc–AT1R (Rattus norvegicus, UniProt P25095); assay: Receptor–ligand BRET equilibrium binding, NanoLuc–AT1R in HEK 293T cells; conditions: 1 μM TAMRA–AngII, two site competitive fit, 2 h room temperature
T5 construct: secretion signal peptide of interleukin-6 (N); expressed in transfected cells; host or cells: HEK 293T
T5 sequence (P25095 1-359): T3 sequence (P25095 1-359)

AT1R [9] = target: T4, AT1R; assay: Kinetic PM–ligand BRET, AT1R with GLuc–PM; type: binding
[10] = read-out: plasma membrane-ligand BRET decrease (%) Replicate1
[11] = read-out: plasma membrane-ligand BRET decrease (%) Replicate2
[12] = 375 nM BODIPY FL–prazosin, one site competitive fit, PM–ligand BRET
[13] = 375 nM BODIPY FL–prazosin, one site competitive fit, receptor–ligand BRET

T1 sequence (P35348 whole entry): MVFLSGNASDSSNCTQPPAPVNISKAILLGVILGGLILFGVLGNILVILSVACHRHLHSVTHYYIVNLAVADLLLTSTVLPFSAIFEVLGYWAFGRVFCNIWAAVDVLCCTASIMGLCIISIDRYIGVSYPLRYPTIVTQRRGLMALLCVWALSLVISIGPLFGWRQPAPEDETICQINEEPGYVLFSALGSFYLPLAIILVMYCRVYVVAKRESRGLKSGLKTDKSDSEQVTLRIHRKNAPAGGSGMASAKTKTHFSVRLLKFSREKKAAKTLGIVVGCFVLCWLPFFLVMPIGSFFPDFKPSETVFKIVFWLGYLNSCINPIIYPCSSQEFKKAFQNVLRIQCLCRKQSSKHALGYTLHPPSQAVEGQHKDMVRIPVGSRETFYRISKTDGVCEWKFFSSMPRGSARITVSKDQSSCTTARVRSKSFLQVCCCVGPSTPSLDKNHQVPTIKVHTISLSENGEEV
T2 sequence (P35348 whole entry): as above
Sequence of AT2 angiotensin receptor (AT2R), untagged, rat (rat) (P35351 whole entry): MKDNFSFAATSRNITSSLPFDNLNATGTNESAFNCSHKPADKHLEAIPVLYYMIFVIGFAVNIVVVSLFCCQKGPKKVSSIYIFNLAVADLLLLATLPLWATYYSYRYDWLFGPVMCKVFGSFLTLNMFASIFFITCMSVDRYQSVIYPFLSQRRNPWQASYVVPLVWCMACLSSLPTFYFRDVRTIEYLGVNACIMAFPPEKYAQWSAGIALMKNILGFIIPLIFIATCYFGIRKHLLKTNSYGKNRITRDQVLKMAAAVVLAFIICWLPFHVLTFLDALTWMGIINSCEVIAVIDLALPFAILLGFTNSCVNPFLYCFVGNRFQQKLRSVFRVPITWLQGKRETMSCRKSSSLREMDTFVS

| Compound | inhibition at 10 µM (ɑ1AAR [1]; [10]) | inhibition at 10 µM (ɑ1AAR [1]; [11]) | further results |
| --- | --- | --- | --- |
| CC(C)(C)Nc1nnc(Sc2ncnc3sccc23)s1 [BCC0117056] | -11.6% | -0.3% |  |
| Cc1cc(C)c(CNC(=O)c2ccc(NC(=O)C3CC3)cc2)c(=O)[nH]1 [BCC0003661] | -7.67% | -9.71% |  |
| O=C(c1noc2c1COc1ccccc1-2)N1CCN(c2cccc(Cl)c2)CC1 [BCC0066678] | -4.28% | -2.43% |  |
| [Sar^1,Ile^4,Ile^8]-angiotensin II (SII) (peptide) |  |  | IC50 of the high-affinity site (IC50 Hi) [2]: 1280 nM |
| Cc1ccnc(SCc2nc3ccccn3c2Br)n1 [BCC0020406] | -10.3% | -12% |  |
| O=C(CN1CCN(CC(=O)Nc2cccc([N+](=O)[O-])c2)CC1)Nc1cccc([N+](=O)[O-])c1 [BCC0036095] | -1.4% | 3.14% |  |
| angiotensin II (AngII) (peptide) |  |  | IC50 [3]: 479 nM |
| CC(NC(=O)C1CC1C)c1ccc(-n2cncn2)cc1 (stereo not shown) [BCC0008909] | 4.15% | -0.3% |  |
| O=C(CN1CCC(n2nnc3cc(F)ccc32)CC1)N1CCc2ccccc2C1 [BCC0061678, 1-(3,4-Dihydro-1H-isoquinolin-2-yl)-2-[4-(5-fluorobenzotriazol-1-yl)piperidin-1-yl]ethanone] |  |  | Ki (ɑ1AAR [4]; [12]): 180 nM; Ki (GLuc–ɑ1AAR; [13]): 274 nM |
| COc1ccccc1OCCNCC(O)COc1cccc2[nH]c3ccccc3c12 (stereo not shown) [carvedilol, reference compound] |  |  | Ki (ɑ1AAR [4]): 43.8 nM; Ki (GLuc–ɑ1AAR): 62.7 nM |
| COc1ccc(C(=O)NCCN2CCN(C(=O)c3ccc(OC)c(OC)c3)CC2)cc1OC [BCC0048283] | 0.72% | 3.82% |  |
| O=C(/C=C/c1nc2ccccc2o1)N1CCC(c2c[nH]c3ccccc23)CC1 [BCC0010913, (E)-3-(1,3-Benzoxazol-2-yl)-1-[4-(1H-indol-3-yl)piperidin-1-yl]prop-2-en-1-one] |  |  | Ki (ɑ1AAR [4]; [12]): 1840 nM; Ki (GLuc–ɑ1AAR; [13]): 2750 nM |
| CS(=O)(=O)Nc1c(O)ccc2c1CCCC2C1=NCCN1 (stereo not shown) [Compound A61603, A61603, reference compound] | -74% | -76% |  |
| O=C(CN1CCC(N2CCCCC2)CC1)N1CCC2(CC1)OCCO2 [BCC0092904] | -4.89% | -1.52% |  |
| O=C(NCCN1CCN(c2ccccc2)CC1)Nc1ccc2c(c1)OCCO2 [BCC0079473, 1-(2,3-Dihydro-1,4-benzodioxin-6-yl)-3-[2-(4-phenylpiperazin-1-yl)ethyl]urea] |  |  | Ki (ɑ1AAR [4]; [12]): 122 nM; Ki (GLuc–ɑ1AAR; [13]): 248 nM |
| CN1CCN(C(=O)c2ccc(-n3nc(C(F)(F)F)c4c3CCCC4)cc2)CC1 [BCC0063211] | 3.59% | 4.59% |  |
| FC(F)(F)c1cccc(OCCn2cncn2)c1 [BCC0089082] | 2.21% | 4.76% |  |
| CCCN1CCC(N2CCN(S(=O)(=O)c3ccc(C)cc3)CC2)CC1 [BCC0058402] | -0.92% | 2.58% |  |
| CN(C)CCCNCc1ccc2c(c1)OCO2 [BCC0076253] | -1.24% | -0.43% |  |
| COc1ccc(-c2nnc(SCC(=O)Nc3cc(C)cc(C)c3)[nH]2)cc1 [BCC0072526, N-(3,5-Dimethylphenyl)-2-[[5-(4-methoxyphenyl)-1H-1,2,4-triazol-3-yl]sulfanyl]acetamide] |  |  | Ki (ɑ1AAR [4]; [12]): 86.1 nM; Ki (GLuc–ɑ1AAR; [13]): 215 nM |
| O=C(Cn1nnc2ccccc21)N1CCC(n2c(=O)oc3ccccc32)CC1 [BCC0101075] | -4.37% | -10.8% |  |
| COc1ccccc1NS(=O)(=O)c1ccc2c(c1)SC(C)C(=O)N2 (stereo not shown) [BCC0083047] | -3.44% | -2.12% |  |
| CSc1ccc(CNC2CN3CCC2CC3)cc1 (stereo not shown) [BCC0080607] | -0.99% | 2.8% |  |
| CCC(=O)c1ccc(OCCN2CCOCC2)cc1 [BCC0059938] | -1.24% | -1.63% |  |
| CCOc1nc2cccc(C(=O)O)c2n1Cc1ccc(-c2ccccc2-c2nnn[nH]2)cc1 [candesartan] |  |  | koff (GLuc–AT1R [5]): 0.00123 s⁻¹; kon (GLuc–AT1R [5]): 540000 M⁻¹ s⁻¹; IC50 (AT1R [6]; 1 μM TAMRA–AngII, GLuc–PM, read-out: IC50_Hi): 1.24 nM; IC50 (AT1R [6]; 1 μM TAMRA–AngII, GLuc–PM, read-out: IC50_Lo): 248000 nM; IC50 (AT1R [7]; read-out: IC50_Hi): 1.29 nM; IC50 (AT1R [7]; read-out: IC50_Lo): 19.6 nM; IC50 (GLuc–AT1R [8]; read-out: IC50_Hi): 0.207 nM; IC50 (GLuc–AT1R [8]; read-out: IC50_Lo): 1.3 nM; IC50 (NanoLuc–AT1R; read-out: IC50_Hi): 0.52 nM; IC50 (NanoLuc–AT1R; read-out: IC50_Lo): 1 nM; koff (AT1R [9]): 0.000833 s⁻¹; kon (AT1R [9]): 278000 M⁻¹ s⁻¹ |
| Cc1cc(S(=O)(=O)NCc2ccccc2)ccc1OCC(=O)N1CCN(C)CC1 [BCC0113627] | 1.05% | -3.63% |  |
| Cc1cc(C(=O)NCc2ccc(F)cc2)on1 [BCC0004615] | -12.9% | -13.9% |  |
| CC[C@H](C)[C@H](NC(=O)[C@@H]1CCCN1C(=O)[C@H](Cc1c[nH]cn1)NC(=O)[C@@H](NC(=O)[C@@H](NC(=O)[C@@H](NC(=O)[C@H](CCCNC(=N)N)NC(=O)CNC)C(C)C)[C@@H](C)CC)[C@@H](C)CC)C(=O)O [SII, [Sar^1,Ile^4,Ile^8]-angiotensin II] |  |  | IC50 (AT1R [6]; read-out: IC50_Hi, agonist binding, GLuc–PM (Fig. 2M)): 1280 nM |
| CN1CCCCC1C#CC(O)(c1ccccc1)c1ccccc1 (stereo not shown) [BCC0068132] |  |  | plasma membrane-ligand BRET decrease (%) Replicate1 (ɑ1AAR [1]): -4,21%; plasma membrane-ligand BRET decrease (%) Replicate2 (ɑ1AAR [1]): -5,19% |
| C=CCOc1ccc2[nH]c(C)c(C(=O)OCC)c2c1 [BCC0065386] | 4.81% | 1.12% |  |
